Measured values: publication doi:10.1101/318345v1, “Three enzymes and one substrate; regulation of flux through the glyoxylate shunt in the opportunistic pathogen, Pseudomonas aeruginosa” (biorxiv, 2018)

What was measured:
ICL = target: T1, ICL (Pseudomonas aeruginosa, UniProt Q9I0K4); assay: ICL activity, spectrophotometric; format: biochemical; conditions: for Ki': uncompetitive, inhibitor at 1 mM, 37 °C, substrate isocitrate
T1 construct: gene PA2634; full length, 531 residues, 59 kDa; His6-MBP fusion from E. coli DH5alpha, tag cleaved with Factor Xa; tetramer
T1 sequence (Q9I0K4 1-531): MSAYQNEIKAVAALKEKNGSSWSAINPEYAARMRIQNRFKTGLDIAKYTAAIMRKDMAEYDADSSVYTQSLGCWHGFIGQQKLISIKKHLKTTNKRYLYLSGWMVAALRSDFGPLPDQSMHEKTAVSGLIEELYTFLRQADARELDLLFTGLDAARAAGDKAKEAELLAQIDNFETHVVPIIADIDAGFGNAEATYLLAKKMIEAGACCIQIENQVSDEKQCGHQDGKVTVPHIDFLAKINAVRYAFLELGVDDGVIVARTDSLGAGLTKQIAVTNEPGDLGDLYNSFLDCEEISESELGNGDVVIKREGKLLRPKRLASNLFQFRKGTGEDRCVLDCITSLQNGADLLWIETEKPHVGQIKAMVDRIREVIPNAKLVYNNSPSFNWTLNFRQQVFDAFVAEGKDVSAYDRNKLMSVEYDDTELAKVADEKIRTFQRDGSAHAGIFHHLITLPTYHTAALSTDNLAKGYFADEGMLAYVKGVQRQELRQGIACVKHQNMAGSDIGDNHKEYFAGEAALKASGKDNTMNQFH
Source text: ICL activity, spectrophotometric on ICL

AceKPA = target: T2, AceKPA (Pseudomonas aeruginosa, UniProt Q9I3W8); assay: AceK phosphatase coupled to ICD reactivation; format: biochemical; conditions: activator of phosphatase at 5 mM; ICD from P. aeruginosa as protein substrate; 1 mM ATP, 2 mM MgCl2, pH 7.0, 37 °C
T2 construct: gene aceK; His6-tagged from pET-19m, tag cleaved with TEV protease
T2 sequence (Q9I3W8 1-577): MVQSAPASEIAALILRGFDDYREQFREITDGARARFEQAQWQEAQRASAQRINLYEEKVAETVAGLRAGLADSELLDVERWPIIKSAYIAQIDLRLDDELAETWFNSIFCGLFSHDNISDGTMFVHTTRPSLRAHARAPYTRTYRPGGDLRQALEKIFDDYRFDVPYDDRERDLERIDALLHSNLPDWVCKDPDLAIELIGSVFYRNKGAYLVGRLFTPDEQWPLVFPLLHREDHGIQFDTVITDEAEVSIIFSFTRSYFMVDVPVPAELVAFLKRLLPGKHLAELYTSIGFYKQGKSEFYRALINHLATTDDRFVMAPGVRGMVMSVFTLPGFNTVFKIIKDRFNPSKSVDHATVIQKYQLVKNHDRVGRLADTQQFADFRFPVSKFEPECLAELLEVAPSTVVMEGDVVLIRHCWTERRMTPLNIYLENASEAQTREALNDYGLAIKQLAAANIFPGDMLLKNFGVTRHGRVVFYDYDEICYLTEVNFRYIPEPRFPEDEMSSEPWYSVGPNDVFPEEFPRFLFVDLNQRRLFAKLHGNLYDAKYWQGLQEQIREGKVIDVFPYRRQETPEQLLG
T2 sequence (Q9I0L5 1-418 partner): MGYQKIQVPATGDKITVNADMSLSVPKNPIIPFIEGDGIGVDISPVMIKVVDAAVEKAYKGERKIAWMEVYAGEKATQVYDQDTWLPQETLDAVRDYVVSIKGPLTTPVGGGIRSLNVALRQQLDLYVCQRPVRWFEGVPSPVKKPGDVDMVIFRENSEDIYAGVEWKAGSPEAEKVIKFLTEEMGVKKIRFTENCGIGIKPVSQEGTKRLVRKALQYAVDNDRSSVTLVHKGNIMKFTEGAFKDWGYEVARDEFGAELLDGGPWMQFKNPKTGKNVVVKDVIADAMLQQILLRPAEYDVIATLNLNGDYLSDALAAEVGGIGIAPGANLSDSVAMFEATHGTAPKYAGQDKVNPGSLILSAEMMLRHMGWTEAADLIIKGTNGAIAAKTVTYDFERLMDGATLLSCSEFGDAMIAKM

IDH [1] = target: T3, IDH (Pseudomonas aeruginosa, UniProt Q9I0L4); assay: isocitrate dehydrogenase activity, NADPH at […] nm; format: biochemical; conditions: activator at 1 mM, V-type allosteric; 5 mM MgCl2, pH 7.5, 37 °C
T3 construct: full length, 82 kDa; His6-MBP fusion from E. coli DH5alpha, tag cleaved with Factor Xa
T3 sequence (Q9I0L4 1-741): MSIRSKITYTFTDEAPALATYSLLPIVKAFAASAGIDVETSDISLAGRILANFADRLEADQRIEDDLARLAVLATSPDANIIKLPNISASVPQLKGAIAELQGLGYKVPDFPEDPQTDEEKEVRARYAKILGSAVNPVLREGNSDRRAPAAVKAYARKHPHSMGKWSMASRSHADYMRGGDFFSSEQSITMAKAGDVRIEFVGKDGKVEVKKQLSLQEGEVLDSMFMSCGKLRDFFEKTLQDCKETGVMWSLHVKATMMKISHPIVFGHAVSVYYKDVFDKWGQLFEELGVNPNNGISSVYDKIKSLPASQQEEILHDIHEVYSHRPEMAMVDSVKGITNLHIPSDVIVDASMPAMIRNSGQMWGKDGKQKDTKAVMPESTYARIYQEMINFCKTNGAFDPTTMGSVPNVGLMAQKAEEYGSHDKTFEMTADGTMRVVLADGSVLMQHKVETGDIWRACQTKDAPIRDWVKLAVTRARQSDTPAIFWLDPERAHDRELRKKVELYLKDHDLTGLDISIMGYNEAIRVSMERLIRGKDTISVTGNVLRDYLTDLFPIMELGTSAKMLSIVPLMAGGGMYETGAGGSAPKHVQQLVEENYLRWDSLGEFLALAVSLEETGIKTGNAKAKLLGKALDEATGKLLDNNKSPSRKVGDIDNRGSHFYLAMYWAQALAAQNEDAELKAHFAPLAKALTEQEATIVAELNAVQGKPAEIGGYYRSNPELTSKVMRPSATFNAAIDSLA

ICD = target: T4, ICD (Pseudomonas aeruginosa, UniProt Q9I0L5); assay: isocitrate dehydrogenase activity, NADPH at […] nm; format: biochemical
T4 construct: full length, 45 kDa; His6-MBP fusion from E. coli DH5alpha, tag cleaved with Factor Xa; dimer
T4 sequence (Q9I0L5 1-418): T2 sequence (Q9I0L5 1-418 partner)

IDH [2] = target: T3, IDH; assay: X-ray crystal structure, […] Å; format: binding; conditions: chain A, with NADP
[3] = text b11 prints a different value (0.6 mM)

Work on `O=C(O)CC(O)(CC(=O)O)C(=O)O` [citrate] yielded a Ki (ICL) of 15800 µM.
Molecule `CC(C)(COP(=O)(O)OP(=O)(O)OC[C@H]1O[C@@H](n2cnc3c(N)ncnc32)[C@H](O)[C@@H]1OP(=O)(O)O)[C@@H](O)C(=O)NCCC(=O)NCCS` [coenzyme A] has a Ki (ICL) of 3900 µM.
With `O=C(O)/C=C/C(=O)O` [fumarate] the “AceK phosphatase coupled to ICD reactivation” value (AceKPA) was “fumarate was the most potent activator of the phosphatase in AceKPA”.
For `O=C(O)CO` [glycolic acid], the Ki (ICL) was 1800 µM.
With `C=C(CC(=O)O)C(=O)O` [itaconic acid] the “Ki'” value (ICL; text b11 prints a different value (0.5 mM)) was 900 µM.
`O=C(O)C[C@H](O)C(=O)O` [malic acid] gave a Ki (ICL) of 4400 µM.
For `O=C(O)CC(=O)O` [malonic acid], the “Ki'” value (ICL) was 2900 µM.
`O=C(O)CC[N+](=O)[O-]` [nitropropionic acid] was tested, and the “Ki'” value (ICL; [3]) was 1000 µM.
For `O=C(O)CC(=O)C(=O)O` [oxaloacetate], the Ki (ICL) was 1400 µM.
For `CC(=O)C(=O)O` [pyruvate], the “isocitrate dehydrogenase activity, NADPH at 340 nm” value (IDH [1]) was “pyruvate and oxaloacetate were far more potent regulators” and the Ki (ICL) was 1700 µM.
In the case of `O=C(O)CCC(=O)O` [succinate], the “Ki'” value (ICL; [3]) is reported as 900 µM.
In the case of `O=C(O)CCC(=O)C(=O)O` [α-ketoglutarate], the Ki (ICD) is reported as 666 µM and the “X-ray crystal structure, 2.7 Å” value (IDH [2]) is reported as “(designated chain A) contained bound α-ketoglutarate and NADP”.
